Key:
[1] = system: Staphylococcus aureus ATCC 6538; assay: Antimicrobial activity, MIC determination; format: cell-based; settings: S. aureus; 24-h incubation, 37°C
Method: (§1) The in vitro antimicrobial activity of the compounds was evaluated by determining the minimum inhibitory concentration (MIC) against the Gram-positive microorganisms Staphylococcus aureus ATCC 6538 (S. aureus) and Bacillus subtilis ATCC 6633 (B. subtilis) and the Gram-negative microorganism Xanthomonas campestris ATCC 1395 (X. campestris). The affinity of the compounds for bovine serum albumin (BSA) and human serum albumin (HSA) was studied by fluorescence emission spectroscopy, and the corresponding binding constants were determined. Furthermore, the interaction of the compounds with calf-thymus DNA (CT DNA) was investigated to determine the possible mode of interaction by the following methods: (i) UV–vis spectroscopy (where the DNA-binding constants of the complexes (Kb) were also determined), (ii) DNA-viscosity measurements, (iii) cyclic voltammetry and (iv) competitive DNA-binding studies with the classic intercalator ethidium bromide (EB) performed by fluorescence emission spectroscopy.
(§2) Three bacterial strains, one Gram(−) (X. campestris) and two Gram(+) (S. aureus and B. subtilis), were used in order to test the antimicrobial activity of the compounds.
(§3) The antimicrobial activity of the compounds was evaluated b y determining their respective MIC values towards one Gram–( –) (Xanthomonas campestris ATCC 1395 (X. campestris)) and two Gram–(+) (Staphylococcus aureus ATCC 6538 (S. aureus) and Bacillus subtilis ATCC 6633 (B. subtilis)) bacterial species. Cultures of these microbial strains were grown on a rich selective agar medium and stored at 4°C. The selective media used were Nutrient Agar or Broth for B. subtilis and S. aureus, and Yeast Mold Agar or Broth for X. campestris . Cells picked from the surface of the stored cultures were used to initiate liquid pre–cultures of the same selective medium at an initial turbidity of roughl y 1 McFarland unit. Pre–cultures were incubated for 24 h in a rotar y sh aking incubator and subsequently the y were used to inoculate the test cultures used for the determination of MIC at an initial turbidity of 0.5 McFarland units. The test cultures consisted of Mueller–Hinton broth (Deben Diagnostics Ltd) containing different concentrations of the compounds. Different concentrations were achieved as follows: the compounds were freshly dissolved in DMSO to a concentration of 1 mg/mL and they were diluted with DMSO, using the method of progressive double dilution. Therefore, working solutions with decreasing concentrations of the compounds under investigation were achieved. The working solutions were subsequently diluted to the final desired concentration b y addition to the growth medium at a proportion of 2:98. MIC values were determined as the lowest concentrations of the tested compounds that inhibited visible growth of each respective organism after a 24–h incubation [ S1]. Bacterial growth was determined b y measuring the turbidit y of appropriatel y diluted cultures at 600 nm with reference to equall y diluted sterile growth medium and the inhibition achieved was calculated b y comparing the turbidit y of each culture to the average of the turbidit y of three non–inhibited cultures. All test cultures were grown in triplicates and for the determination of MIC, growth had to be inhibited in at least two cultures of the triplicate. In cubation temperatur e at all stages was 37°C ex cept for X. campestris t h at was cultivated at 28°C [S2]. […]
(§4) The fluorescence spectra of the compounds were recorded under the same experimental conditions and presented a low–intensity emission band in the region 405–410 nm .

[2] = system: Xanthomonas campestris ATCC 1395; assay: Antimicrobial activity, MIC determination; format: cell-based; settings: X. campestris; 24-h incubation, 28°C
Method: as §1, §2, §3, §4

[3] = system: Bacillus subtilis ATCC 6633; assay: Antimicrobial activity, MIC determination; format: cell-based; settings: B. subtilis; 24-h incubation, 37°C
Method: as §1, §2, §3, §4

[4] = system: EB–DNA adduct (CT DNA); assay: Competitive study with EB (EB–DNA fluorescence quenching); format: binding, calf; settings: for Ksv, Stern–Volmer constant: EB–DNA adduct; for ΔI/Io, percentage of EB–DNA fluorescence quenching: [EB] = 20 μM, [DNA] = 26 μM, λexc 540 nm, λem 592 nm; for EB–DNA relative fluorescence emission intensity, % of the initial (I/Io): λemission = 592 nm, final value (up to), Figure S14; for kq, EB–DNA quenching constant: τo = 23 ns
Method: Ethidium bromide is a typical marker of intercalation because it can intercalate between adjacent DNA bases with its planar phenanthridine ring.
The fluorescence emission spectra of the EB–DNA adduct ([EB] = 20 μM, [DNA] = 26 μM) in the absence and presence of the compounds were recorded at increasing amounts of the respective compounds. […] As a conclusion, an intercalative interaction of the complexes with CT DNA can be proposed.
The values of the Stern–Volmer constants (Ksv) for the compounds were calculated using the linear Stern–Volmer equation (Equation (S2)) and were of the order of 10^5 M^−1 (Table 8), indicating tight binding of the complexes with DNA [61]. The Ksv values for the complexes are in the range found for a number of metal(II)–quinolone complexes, and complex 12 presents the highest Ksv value (Ksv = 7.25(±0.30) × 10^5 M^−1) among the compounds studied. In addition, the EB–DNA quenching constants (kq) for the compounds were calculated with Equation (S3), assuming τo = 23 ns as the fluorescence lifetime. The values of kq (Table 8) are much higher than the value of 10^10 M^−1s^−1, indicating a static mechanism of EB–DNA fluorescence quenching induced by the compounds, which can result from the formation of a new adduct apparently consisting of each complex and DNA [61].
In order to determine and confirm the DNA–binding mode of the compounds, a competitive study with EB as an intercalating marker is performed b y fluorescence emission spectroscopy.
Therefo re, the E B–displacing abilit y of the compounds from its EB –DN A conjugate was ex amined.
The DNA–EB adduct was prepared b y addition of 20 μM EB and 26 μM CT DNA in buffer solution (150 mM NaCl and 15 mM trisodium citrate at pH 7.0). The potential intercalation of the compounds between the DNA–bases was studied by the addition of a certain amount of the compound solution into the EB–DNA adduct solution. The influence of the compounds on the EB – DNA solution was monitored through the changes of the fluorescence emission spectra at excitation […]
wavelen gth (λex ) at 540 nm [S3]. […]
room temperature in solution or in the presence of DNA, under the same experimental conditions (λex = 540 nm). Bearing t hat in mind, the observed quenching of the EB–DNA solution is evidentl y associated to the displacement of EB from its EB–DNA adduct.
The quenching effici ency (KSV) for each compound was assessed according to the Stern – Volmer equation: Io =1+ k τ [Q] = 1+ K [Q], (eq. S2) [S3] where I0 and I = the fluorescence […]
emission intensities of EB–DNA in the absence and presence of the quencher, respectivel y, [Q] = the concentration of the quencher (i.e. compounds). KSV is obtained from t he Stern–Volmer plots b y the slope of the diagram I0/ I versus [Q]. Taking τ0 = 23 ns as the fluorescence lifetime of the EB– DNA s ystem [S5], the EB –DNA quenching constants (k q) of the compounds can be determined accordin g to eq.S3: K SV = kqτo . […]
[S2] Irgi, E.P.; Geromichalos, G.D.; Balala, S.; Kljun, J.; Kalogiannis, S.; Papadopoulos, A.; Turel, I.; Psomas, G. Cobalt(II) complexes with quinolone antimicrobial drug oxolinic acid: […]
[ S 5] Heller, D.P.; Greenstock, C.L. Fluorescence lifetime analysis of DNA intercalated ethidium bromide and quenching by free d ye. Biophys. Chem . 1994, 50, 305–312.

Compound | MIC [1] [mg/L] | MIC (values in parentheses) [1] [µM] | MIC [2] [mg/L] | MIC (values in parentheses) [2] [µM] | MIC [3] [mg/L] | MIC (values in parentheses) [3] [µM] | Ksv, Stern–Volmer constant [4] | ΔI/Io, percentage of EB–DNA fluorescence quenching [4] [%] | EB–DNA relative fluorescence emission intensity, % of the initial (I/Io) [4] [%] | kq, EB–DNA quenching constant [4]
CN1CCN(c2c(F)cc3c(=O)c(C(=O)[O-])cn(CCF)c3c2F)CC1.CN1CCN(c2c(F)cc3c(=O)c(C(=O)[O-])cn(CCF)c3c2F)CC1.[Cu+2] [complex 1, [Cu(flrx)2]] | 8 | 10.0 | 8 | 10.0 | 8 | 10.0 | 2.18(±0.06) × 10^5 M^–1 | 62.2 | 37.8 | 9.47(±0.03) × 10^12 M^−1s^−1
CN1CCN(c2c(F)cc3c(=O)c(C(=O)[O-])cn(CCF)c3c2F)CC1.CN1CCN(c2c(F)cc3c(=O)c(C(=O)[O-])cn(CCF)c3c2F)CC1.O.O.[Mn+2] [complex 2, [Mn(flrx)2(H2O)2]] | 4 | 4.7 | 16 | 18.7 | 4 | 4.7 | 6.07(±0.23) × 10^5 M^–1 | 74.4 | 15.6 | 2.64(±0.10) × 10^13 M^−1s^−1
CN1CCN(c2c(F)cc3c(=O)c(C(=O)[O-])cn(CCF)c3c2F)CC1.CN1CCN(c2c(F)cc3c(=O)c(C(=O)[O-])cn(CCF)c3c2F)CC1.CO.CO.[Co+2] [complex 4, [Co(flrx)2(MeOH)2]] | 4 | 4.6 | 16 | 18.6 | 8 | 9.3 | 1.36(±0.03) × 10^5 M^–1 | 64.1 | 35.9 | 5.93(±0.14) × 10^12 M^−1s^−1
CN1CCN(c2c(F)cc3c(=O)c(C(=O)[O-])cn(CCF)c3c2F)CC1.CN1CCN(c2c(F)cc3c(=O)c(C(=O)[O-])cn(CCF)c3c2F)CC1.CO.CO.[Ni+2] [complex 5, [Ni(flrx)2(MeOH)2]] | 4 | 4.6 | 16 | 18.6 | 4 | 4.6 | 2.33(±0.08) × 10^5 M^–1 | 56.9 | 43.1 | 1.01(±0.03) × 10^13 M^−1s^−1
CN1CCN(c2c(F)cc3c(=O)c(C(=O)[O-])cn(CCF)c3c2F)CC1.[Cl-].[Cu+2].c1ccc(-c2ccccn2)nc1 [complex 6, [Cu(flrx)(bipy)Cl]] | 4 | 6.4 | 8 | 12.8 | 8 | 12.8 | 2.03(±0.05) × 10^5 M^–1 | 61.9 | 38.1 | 8.84(±0.21) × 10^12 M^−1s^−1
CN1CCN(c2c(F)cc3c(=O)c(C(=O)[O-])cn(CCF)c3c2F)CC1.[Cl-].[Cu+2].c1ccc(Nc2ccccn2)nc1 [complex 7, [Cu(flrx)(bipyam)Cl]] | > 16 | > 25.0 | > 32 | > 50.0 | > 16 | > 25.0 | 3.44(±0.06) × 10^5 M^–1 | 62.7 | 37.3 | 1.50(±0.03) × 10^13 M^−1s^−1
CN1CCN(c2c(F)cc3c(=O)c(C(=O)[O-])cn(CCF)c3c2F)CC1.[Cl-].[Cu+2].c1cnc2c(c1)ccc1cccnc12 [complex 8, [Cu(flrx)(phen)Cl]] | 8 | 12.3 | 8 | 12.3 | 8 | 12.3 | 3.25(±0.08) × 10^5 M^–1 | 66.4 | 33.6 | 1.41(±0.03) × 10^13 M^−1s^−1
CN1CCN(c2c(F)cc3c(=O)c(C(=O)[O-])cn(CCF)c3c2F)CC1.CN1CCN(c2c(F)cc3c(=O)c(C(=O)[O-])cn(CCF)c3c2F)CC1.[Mn+2].c1ccc(-c2ccccn2)nc1 [complex 9, [Mn(flrx)2(bipy)]] | 8 | 8.4 | 16 | 16.9 | 8 | 8.4 | 3.31(±0.07) × 10^5 M^–1 | 73.8 | 26.2 | 1.44(±0.03) × 10^13 M^−1s^−1

From publication PMC9144902, “Metal(II) Complexes of the Fluoroquinolone Fleroxacin: Synthesis, Characterization and Biological Profile” (Pharmaceutics, 2022)
